The text below walks through data of US20070088019A1, “Macroheterocyclic compounds as kinase inhibitors” (priority 2005, published 2007).

One experiment addresses PKC isoform α (Homo sapiens, UniProt P17252). Kind of experiment: Protein Kinase C histone-based assay, PKC alpha. The class given is biochemical. To be noted: histone substrate, 30 μM ATP, 10 min at 30° C. Here is the method: (§1) Protein Kinase C Histone-Based Assay
(§2) Compounds were evaluated for PKC selectivity using histone III as the substrate. The PKC isoforms α, β-II or γ were added to a reaction mixture containing 20 mM HEPES, (pH 7.4), […] CaCl2, 10 mM MgCl2, 1 mM EGTA. 100 μg/mL phosphatidylserine, 20 μg/mL diacylglycerol, 30 μM ATP, 1 μCi (^33P)ATP, and 200 μg/mL […]. The reaction was incubated for 10 min at 30° C. Reactions were terminated by TCA precipitation and spotting on Whatman P81 filters. Filters were washed in 75 mM phosphoric acid and the radioactivity quantified by liquid scintillation counting.

For another experiment, the target named is PKC Beta I (Homo sapiens, UniProt P05771). Kind of experiment: Protein Kinase C histone-based assay, PKC beta I. The class given is biochemical. To be noted: histone substrate, 30 μM ATP, 10 min at 30° C.
The target of the next experiment is PKC isoform β-II (Homo sapiens, UniProt P05771). Kind of experiment: Protein Kinase C histone-based assay, PKC beta II. The class given is biochemical. The conditions noted are these: histone substrate, 30 μM ATP, 10 min at 30° C. As to the method: as §1, §2
In another experiment the target is PKC isoform γ (Homo sapiens, UniProt P05129). Kind of experiment: Protein Kinase C histone-based assay, PKC gamma. It is filed as biochemical. The conditions noted are these: histone substrate, 30 μM ATP, 10 min at 30° C. As to the method: as §1, §2
The target in experiment [1] is T1, recombinant rabbit GSK-3β protein (Oryctolagus cuniculus, UniProt G1T8E2).
T1 construct: purchased New England Biolabs
Put plainly: Glycogen Synthase Kinase-3 assay. The class given is biochemical. To be noted: PPI-2 substrate, 33P-ATP, 90 minutes at 30° C. As to the method:
Glycogen Synthase Kinase-3 Assay
Compounds were tested for the ability to inhibit recombinant rabbit GSK-3β protein using the following protocol. The test compound was added to a reaction mixture containing Protein phosphatase inhibitor-2 (PPI-2) (Calbiochem) (45 ng), rabbit GSK-3β protein (New England Biolabs) (0.75 units) and ^33P-ATP (1 μCi) in 50 mM Tris-HCl (pH 8.0), 10 mM MgCl2, 0.1% BSA, 1 mM DTT and 100 μM Sodium Vanadate. The mixture was reacted for 90 minutes at 30° C. to allow phosphorylation of the PPI-2 protein and then the protein in the reaction was precipitated using 10% TCA. The precipitated protein was collected on filter plates (MultiScreen-DV/Millipore), which were subsequently washed. Finally, the radioactivity was quantified using a TopCount Scintillation Counter (Packard). […] Staurosporine or Valproate, known inhibitors of GSK-3β, were used as a positive control for screening.

The test system of experiment [2] is retinal neovascularization. Kind of experiment: Murine retinopathy in-vivo model (oxygen-induced retinopathy). The arrangement: species or system mouse. To be noted: 60 mg/kg. An excerpt: Murine Retinopathy In-Vivo Model
The methods used in this model are known to those skilled in the art and are referenced in the scientific literature, such as Smith, L. E., Wesolowski, E., McLellan, A., Kostyk, S. K., D'Amato, R., Sullivan, R., and D'Amore, P. A. “Oxygen-induced retinopathy in the mouse”. Invest. Ophthalmol. Vis. Sci., 1994, January; 35(1): 101-11.

pIC50: −log10 of the molar value.

PKC isoform β-II, sequence (P05771 1-673 isoform P05771-2): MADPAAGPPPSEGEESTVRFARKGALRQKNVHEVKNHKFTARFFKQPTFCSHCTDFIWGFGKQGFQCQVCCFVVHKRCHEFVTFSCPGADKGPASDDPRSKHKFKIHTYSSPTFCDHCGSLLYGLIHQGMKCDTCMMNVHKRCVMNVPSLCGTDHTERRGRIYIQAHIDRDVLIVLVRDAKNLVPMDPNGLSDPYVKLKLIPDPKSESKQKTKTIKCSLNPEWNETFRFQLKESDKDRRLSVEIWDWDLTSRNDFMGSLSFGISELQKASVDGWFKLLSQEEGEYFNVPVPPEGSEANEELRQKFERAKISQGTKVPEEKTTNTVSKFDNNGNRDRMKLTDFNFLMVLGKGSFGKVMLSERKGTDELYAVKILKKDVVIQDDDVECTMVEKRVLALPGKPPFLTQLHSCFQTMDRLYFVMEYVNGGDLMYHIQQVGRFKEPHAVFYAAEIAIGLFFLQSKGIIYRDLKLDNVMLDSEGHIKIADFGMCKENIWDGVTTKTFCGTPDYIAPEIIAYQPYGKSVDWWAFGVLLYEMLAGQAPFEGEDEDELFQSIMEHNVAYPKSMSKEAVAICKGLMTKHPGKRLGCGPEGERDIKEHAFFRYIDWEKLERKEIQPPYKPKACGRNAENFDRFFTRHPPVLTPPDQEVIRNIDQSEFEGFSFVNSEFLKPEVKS
PKC Beta I, sequence (P05771 whole entry, canonical isoform): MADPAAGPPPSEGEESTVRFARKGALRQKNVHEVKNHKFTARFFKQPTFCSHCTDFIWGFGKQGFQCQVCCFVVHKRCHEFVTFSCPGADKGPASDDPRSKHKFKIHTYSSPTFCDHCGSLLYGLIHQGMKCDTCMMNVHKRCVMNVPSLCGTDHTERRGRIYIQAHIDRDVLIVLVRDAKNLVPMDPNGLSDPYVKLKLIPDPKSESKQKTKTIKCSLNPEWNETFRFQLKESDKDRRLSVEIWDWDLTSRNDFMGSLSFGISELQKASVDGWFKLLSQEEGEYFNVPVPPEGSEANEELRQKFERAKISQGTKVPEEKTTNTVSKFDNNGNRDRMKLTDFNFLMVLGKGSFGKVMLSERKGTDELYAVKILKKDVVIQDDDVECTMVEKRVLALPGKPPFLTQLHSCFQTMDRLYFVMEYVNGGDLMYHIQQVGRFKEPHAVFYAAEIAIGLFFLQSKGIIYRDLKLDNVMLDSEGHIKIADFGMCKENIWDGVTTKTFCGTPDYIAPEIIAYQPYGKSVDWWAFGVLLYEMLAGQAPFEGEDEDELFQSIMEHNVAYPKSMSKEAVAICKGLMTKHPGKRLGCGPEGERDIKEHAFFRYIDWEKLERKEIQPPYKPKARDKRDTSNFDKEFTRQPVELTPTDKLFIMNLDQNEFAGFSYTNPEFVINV
T1 sequence (G1T8E2 1-432): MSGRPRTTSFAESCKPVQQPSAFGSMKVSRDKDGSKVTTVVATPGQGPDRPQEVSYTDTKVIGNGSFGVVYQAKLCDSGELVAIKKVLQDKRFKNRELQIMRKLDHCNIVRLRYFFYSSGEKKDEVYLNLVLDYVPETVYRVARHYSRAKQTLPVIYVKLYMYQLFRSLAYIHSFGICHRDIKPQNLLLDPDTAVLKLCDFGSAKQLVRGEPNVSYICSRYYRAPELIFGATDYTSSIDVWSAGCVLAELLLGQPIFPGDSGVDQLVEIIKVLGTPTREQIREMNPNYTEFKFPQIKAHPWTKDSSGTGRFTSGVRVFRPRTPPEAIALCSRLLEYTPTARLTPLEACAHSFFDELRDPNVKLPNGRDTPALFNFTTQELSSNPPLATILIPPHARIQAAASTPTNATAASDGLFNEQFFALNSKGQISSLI

`O=C1NC(=O)C2=C1c1cn(c3ccccc13)CCNCCSCCNCCn1cc2c2ccccc21` [Compound 1, 10,11,12,13,14,16,17,18,19,20-decahydro-15-thio-2,9,12,18,21-pentaaza-1H-diindolo[1,2,3-m,n:3′,2′,1′-r,s]cyclononadec-14,16,18-trien[16,17-c]-pyrrole-2,5-dione]: the negative logarithm of the IC50 (pIC50) against PKC isoform α was 6.80; at PKC Beta I, 8.05; on PKC isoform β-II, 8.22; against PKC isoform γ it was 6.44; in experiment [1] it was 8.30.
In the same order, the values of `CN1CCOCCN(C)CCn2cc(c3ccccc32)C2=C(C(=O)NC2=O)c2cn(c3ccccc23)CC1` [Compound 2, 12,18-dimethyl-10,11,12,13,14,16,17,18,19,20-decahydro-15-oxa-2,9,12,18,21-pentaaza-1H-diindolo[1,2,3-m,n:3′,2′,1′-r,s]cyclononadec-14,16,18-trien[16,17-c]-pyrrole-2,5-dione] are 6.31, 7.57, 7.39, 5.81 and 8.22.
Regarding `O=C1NC(=O)C2=C1c1cn(c3ccccc13)CCNCCOCCNCCn1cc2c2ccccc21` [Compound 3, 10,11,12,13,14,16,17,18,19,20-decahydro-15-oxa-2,9,12,18,21-pentaaza-1H-diindolo[1,2,3-m,n:3′,2′,1′-r,s]cyclononadec-14,16,18-trien[16,17-c]-pyrrole-2,5-dione], the pIC50 against PKC isoform α was 6.48; at PKC Beta I it was 8.05; against PKC isoform β-II, 7.89; against PKC isoform γ it was 5.23; in experiment [1], 8.15. Moreover, the retinal neovascularization entry in experiment [2] was “inhibited retinal neovascularization”.
Consider `CN1CCOCCNCCn2cc(c3ccccc32)C2=C(C(=O)NC2=O)c2cn(c3ccccc23)CC1` [Compound 4, 18-methyl-10,11,12,13,14,16,17,18,19,20-decahydro-15-oxa-2,9,12,18,21-pentaaza-1H-diindolo[1,2,3-m,n:3′,2′,1′-r,s]cyclononadec-14,16,18-trien[16,17-c]-pyrrole-2,5-dione], for which the pIC50 was 6.55 against PKC isoform α, 8.22 against PKC Beta I, 8.10 against PKC isoform β-II and 5.92 at PKC isoform γ.

The pIC50 is −log10 of the IC50, conventionally taken in molar units.
